Test results reported in patent publication EP0007672A1, “Isocyanoalkenes, process and useful intermediates for their preparation, pharmaceutical and fungicidal preparations containing those isocyanoalkenes and the use of the fungicidal preparations in agriculture” (GIST-BROCADES N.V., priority 1978, dated 1980).
Converted amounts (≈) assume the structure as drawn. Like-named read-outs stand apart in the source and are kept apart here.

Experiments:
Test in all cases: MIC (Minimum Inhibitory Concentration)
Type in all cases: cell-based
[1] = tested on: Trichophyton rubrum
Text: (§1) In addition they may be used for combatting plant diseases, in particular as fungicides. A list of MIC (Minimum Inhibitory Concentration) values for a number of microorganisms is listed herebelow. The figures in the column headings refer to the compounds prepared according to the experimental examples in comparison with the spectrum of 1-[2-(2,4-dichlorophenyl)-2-{(2,4-dichlorophenyl)-methoxy} -ethyl7-1H-imidazole (better known under the name of miconazole, c.f. Merck Index 9th Ed. page 6047) or natamycin (pimaricin, c.f. Merck Index 9th Ed. page 7233).

[2] = tested on: Trichophyton equinum
Text: as §1

[3] = tested on: Trichophyton violoceum; details: Trichophyton violoceum 442-62; read-out: MIC values
Text: as §1

[4] = tested on: Pasteurella multocida; details: read-out: MIC values
Text: as §1

[5] = tested on: Trichophyton verrucosum
Text: as §1

[6] = tested on: Trichophyton mentagrophytus
Text: as §1

[7] = tested on: Trichophyton soudanese joyeux; details: Trichophyton soudanese joyeux 440-63; read-out: MIC values
Text: as §1

[8] = tested on: Candida albicans
Text: as §1

[9] = tested on: Trichophyton tonsurans; details: Trichophyton tonsurans 561-50; read-out: MIC values
Text: as §1

[10] = tested on: Trichophyton schoenleinii; details: Trichophyton schoenleinii 435-63; read-out: MIC values
Text: as §1

[11] = tested on: Trichophyton quickeaneum; details: Trichophyton quickeaneum A 2040; read-out: MIC values
Text: as §1

[12] = Trichophyton rubrum 218-65, read-out: MIC values
[13] = Trichophyton rubrum 494-62, read-out: MIC values
[14] = Trichophyton rubrum A 810, read-out: MIC values
[15] = Trichophyton equinum 182-76, read-out: MIC values
[16] = Trichophyton equinum 856-71, read-out: MIC values
[17] = Trichophyton verrucosum 134-66, read-out: MIC values
[18] = Trichophyton verrucosum A 2922, read-out: MIC values
[19] = Trichophyton mentagrophytus 367-68, read-out: MIC values
[20] = Trichophyton mentagrophytus 421-67, read-out: MIC values
[21] = Trichophyton mentagrophytus A 3252, read-out: MIC values
[22] = Trichophyton mentagrophytus R 177, read-out: MIC values
[23] = Trichophyton mentagrophytus R 178, read-out: MIC values
[24] = Trichophyton mentagrophytus RRL 305, read-out: MIC values
[25] = Candida albicans A 7, read-out: MIC values
[26] = Candida albicans A 3140, read-out: MIC values
[27] = Candida albicans A 3141, read-out: MIC values
[28] = Candida albicans A 3144, read-out: MIC values
[29] = Candida albicans A 3145, read-out: MIC values
[30] = Candida albicans A 3165, read-out: MIC values
[31] = Candida albicans A 3166, read-out: MIC values
[32] = Candida albicans A 3167, read-out: MIC values
[33] = Candida albicans A 3168, read-out: MIC values
[34] = Candida albicans A 3169, read-out: MIC values
[35] = Candida albicans A 3171, read-out: MIC values
[36] = Candida albicans A 3190, read-out: MIC values
[37] = Candida albicans A 3191, read-out: MIC values
[38] = Candida albicans A 3194, read-out: MIC values
[39] = Candida albicans A 3196, read-out: MIC values

| MIC [1, 12] [µg/mL] | MIC [1, 13] [µg/mL] | MIC [1, 14] [µg/mL] | MIC [2, 15] [µg/mL] | MIC [2, 16] [µg/mL] | MIC [3] [µg/mL] | MIC ([4]; Pasteurella multocida A 723) [µg/mL] | MIC [5, 17] [µg/mL] | MIC [5, 18] [µg/mL] | MIC [6, 19] [µg/mL] | MIC [6, 20] [µg/mL] | MIC [6, 21] [µg/mL] | MIC [6, 22] [µg/mL] | MIC [6, 23] [µg/mL] | MIC [6, 24] [µg/mL] | MIC [7] [µg/mL] | MIC [8, 25] [µg/mL] | MIC [9] [µg/mL] | MIC [10] [µg/mL] | MIC [11] [µg/mL] | SMILES | further results |
| --- | --- | --- | --- | --- | --- | --- | --- | --- | --- | --- | --- | --- | --- | --- | --- | --- | --- | --- | --- | --- | --- |
| 0.4 (≈ 1.6 µM) | 0.4 (≈ 1.6 µM) | 0.4 (≈ 1.6 µM) | 0.4 (≈ 1.6 µM) | < 0.05 | 12.5 (≈ 50.1 µM) | 1.5 (≈ 6.02 µM) | 0.8 (≈ 3.21 µM) | 6 (≈ 24.1 µM) | 6 (≈ 24.1 µM) | 6 (≈ 24.1 µM) | 6 (≈ 24.1 µM) | 6 (≈ 24.1 µM) | 6 (≈ 24.1 µM) | 3 (≈ 12 µM) | 6 (≈ 24.1 µM) | 0.2 (≈ 0.802 µM) | 3 (≈ 12 µM) | 6 (≈ 24.1 µM) | 0.1 (≈ 0.401 µM) | [C-]#[N+]C(=C(C)CC)S(=O)(=O)c1ccc(C)cc1 [Example 27a, 1-isocyano-2-methyl-1-(4-toluenesulphonyl)-1-butene] | MIC [8, 26]: 0.8 µg/mL (≈ 3.21 µM); MIC [8, 27]: < 0.05 µg/mL; MIC [8, 28]: 0.2 µg/mL (≈ 0.802 µM); MIC [8, 29]: < 0.05 µg/mL; MIC [8, 30]: 0.8 µg/mL (≈ 3.21 µM); MIC [8, 31]: 3 µg/mL (≈ 12 µM); MIC [8, 32]: 0.2 µg/mL (≈ 0.802 µM); MIC [8, 33]: 0.2 µg/mL (≈ 0.802 µM); MIC [8, 34]: 0.1 µg/mL (≈ 0.401 µM); MIC [8, 35]: 0.2 µg/mL (≈ 0.802 µM); MIC [8, 36]: < 0.05 µg/mL; MIC [8, 37]: 0.1 µg/mL (≈ 0.401 µM); MIC [8, 38]: < 0.05 µg/mL; MIC [8, 39]: 0.4 µg/mL (≈ 1.6 µM) |
| 1.5 (≈ 6.02 µM) | 0.8 (≈ 3.21 µM) | 0.8 (≈ 3.21 µM) | 0.8 (≈ 3.21 µM) | 0.4 (≈ 1.6 µM) | 6 (≈ 24.1 µM) | 3 (≈ 12 µM) | 1.5 (≈ 6.02 µM) | 6 (≈ 24.1 µM) | 3 (≈ 12 µM) | 3 (≈ 12 µM) | 3 (≈ 12 µM) | 6 (≈ 24.1 µM) | 6 (≈ 24.1 µM) | 3 (≈ 12 µM) | 6 (≈ 24.1 µM) | 0.4 (≈ 1.6 µM) | 3 (≈ 12 µM) | 6 (≈ 24.1 µM) | 1.5 (≈ 6.02 µM) | [C-]#[N+]C(C(C)=CC)S(=O)(=O)c1ccc(C)cc1 (stereo not drawn) [Example 27b, 1-isocyano-2-methyl-l-(4-toluenesulphonyl)-2-butene] | MIC [8, 26]: 0.8 µg/mL (≈ 3.21 µM); MIC [8, 27]: < 0.05 µg/mL; MIC [8, 28]: 0.4 µg/mL (≈ 1.6 µM); MIC [8, 29]: < 0.05 µg/mL; MIC [8, 30]: 1.5 µg/mL (≈ 6.02 µM); MIC [8, 31]: 3 µg/mL (≈ 12 µM); MIC [8, 32]: 0.4 µg/mL (≈ 1.6 µM); MIC [8, 33]: 0.4 µg/mL (≈ 1.6 µM); MIC [8, 34]: 0.4 µg/mL (≈ 1.6 µM); MIC [8, 35]: 0.4 µg/mL (≈ 1.6 µM); MIC [8, 36]: 0.1 µg/mL (≈ 0.401 µM); MIC [8, 37]: 0.2 µg/mL (≈ 0.802 µM); MIC [8, 38]: 0.4 µg/mL (≈ 1.6 µM); MIC [8, 39]: 0.4 µg/mL (≈ 1.6 µM) |

| SMILES | MIC [1, 12] [µg/mL] | MIC [1, 13] [µg/mL] | MIC [1, 14] [µg/mL] | MIC [2, 15] [µg/mL] | MIC [2, 16] [µg/mL] | MIC [3] [µg/mL] | MIC ([4]; Pasteurella multocida A 723) [µg/mL] | MIC [5, 17] [µg/mL] | MIC [5, 18] [µg/mL] | MIC [6, 19] [µg/mL] | MIC [6, 20] [µg/mL] | MIC [6, 21] [µg/mL] | MIC [6, 22] [µg/mL] | MIC [6, 23] [µg/mL] | MIC [6, 24] [µg/mL] | MIC [7] [µg/mL] | MIC [8, 25] [µg/mL] | MIC [9] [µg/mL] | MIC [10] [µg/mL] | MIC [11] [µg/mL] | further results |
| --- | --- | --- | --- | --- | --- | --- | --- | --- | --- | --- | --- | --- | --- | --- | --- | --- | --- | --- | --- | --- | --- |
| Clc1ccc(COC(Cn2ccnc2)c2ccc(Cl)cc2Cl)c(Cl)c1 (stereo not shown) [miconazole, reference compound] | 0.1 (≈ 0.24 µM) | 0.8 (≈ 1.92 µM) | 0.8 (≈ 1.92 µM) | 0.4 (≈ 0.961 µM) | < 0.05 | 0.8 (≈ 1.92 µM) |  | 0.8 (≈ 1.92 µM) | 0.8 (≈ 1.92 µM) | 3 (≈ 7.21 µM) | 0.2 (≈ 0.481 µM) | 0.4 (≈ 0.961 µM) | 0.4 (≈ 0.961 µM) | 25 (≈ 60.1 µM) | 0.4 (≈ 0.961 µM) | 1.5 (≈ 3.6 µM) |  | 0.1 (≈ 0.24 µM) | 0.2 (≈ 0.481 µM) | 0.1 (≈ 0.24 µM) | MIC ([4]; Pasteurella multocida): > 100 µg/mL; MIC ([8]; read-out: MIC values, Candida albicans A 7): 0.2 µg/mL (≈ 0.481 µM); MIC ([8]; read-out: MIC values, Candida albicans A 3140): 0.1 µg/mL (≈ 0.24 µM); MIC ([8]; read-out: MIC values, Candida albicans A 3141): < 0.05 µg/mL; MIC ([8]; read-out: MIC values, Candida albicans A 3144): 0.8 µg/mL (≈ 1.92 µM); MIC ([8]; read-out: MIC values, Candida albicans A 3145): < 0.05 µg/mL; MIC ([8]; read-out: MIC values, Candida albicans A 3165): 0.2 µg/mL (≈ 0.481 µM); MIC ([8]; read-out: MIC values, Candida albicans A 3167): < 0.05 µg/mL; MIC ([8]; read-out: MIC values, Candida albicans A 3168): 100 µg/mL (≈ 240 µM); MIC ([8]; read-out: MIC values, Candida albicans A 3169): 1.5 µg/mL (≈ 3.6 µM); MIC ([8]; read-out: MIC values, Candida albicans A 3171): < 0.05 µg/mL; MIC ([8]; read-out: MIC values, Candida albicans A 3190): < 0.05 µg/mL; MIC ([8]; read-out: MIC values, Candida albicans A 3191): < 0.05 µg/mL; MIC ([8]; read-out: MIC values, Candida albicans A 3194): 0.2 µg/mL (≈ 0.481 µM) |
